Each compound was assayed on HCT-116 (assay: Cytotoxicity against HCT116 cells after 48 hrs). Conditions: Homo sapiens, HCT-116, 48 h.
Type: functional, cell-based
For `COc1ccc(C2=C(c3ccc(N=[N+]=[N-])cc3)C(=O)N3CCCC3C2)cc1` (stereo not given), the IC50 was 25 µM.
For `COc1ccc(C2=C(c3ccc(OC)cc3)C(=O)N3CCCC3C2)cc1` (stereo not given), the IC50 was 3.2 µM.
`COc1ccc(C2=C(c3ccccc3Cl)C(=O)N3CCCC3C2)cc1` (stereo not given) showed an IC50 of 8 µM.
`COc1ccc(C2=C(c3ccccc3)C(=O)N3CCCC3C2)cc1` (stereo not given) gave an IC50 of 0.39 µM.
`O=C1C(c2ccccc2)=C(c2ccc(O)cc2)CC2CCCN12` (stereo not given) was tested, and the IC50 was 9 µM.
For `COc1ccc(C2=C(c3cc(OC)c(OC)c(OCc4ccccc4)c3)CC3CCCN3C2=O)cc1OC` (stereo not given), the IC50 was 3.3 µM.
In the case of `COc1ccc(C2=C(c3ccc(C)cc3)C(=O)N3CCCC3C2)cc1` (stereo not given), the IC50 is reported as 10 µM.
For `COc1ccc(C2=C(c3cccc(N)c3)C(=O)N3CCCC3C2)cc1` (stereo not given), the IC50 was greater than 25 µM.
`COc1ccc(C2=C(c3ccc(Cl)cc3)C(=O)N3CCCC3C2)cc1` (stereo not given) showed an IC50 of 13 µM.
For `COc1ccc(C2=C(c3ccc(Cl)c(Cl)c3)C(=O)N3CCCC3C2)cc1` (stereo not given), the IC50 was 4 µM.
For `COc1ccc(C2=C(c3ccc(OC)c(OC)c3)C(=O)N3CCCC3C2)cc1` (stereo not given), the IC50 was 5 µM.
Work on `COc1ccc(C2=C(c3ccc(OC)c(OC)c3)C(=O)N3CCCC3C2)cc1OC` (stereo not given) yielded an IC50 greater than 10 µM.
`COc1ccc(C2=C(c3cccc(Cl)c3)C(=O)N3CCCC3C2)cc1` (stereo not given) gave an IC50 of 8 µM.
`O=C1N[C@H]2[C@H](CS[C@H]2CCCCC(=O)OC(=O)CCCCCNOc2ccc(C3=C(c4ccccc4)C(=O)N4CCCC4C3)cc2)N1` (stereo not given in full) gave an IC50 of 17 µM.
Work on `O=C1C(c2ccccc2)=C(c2ccc(OCc3ccccc3)cc2)CC2CCCN12` (stereo not given) yielded an IC50 of 8.9 µM.

Source: ChEMBL document CHEMBL1139753, “Synthesis, in vitro and in vivo cytotoxicity of 6,7-diaryl-2,3,8,8a-tetrahydroindolizin-5(1H)-ones” (Bioorg Med Chem Lett, 2007)
